As a reminder, the IC50 is the point on the concentration scale where inhibition reaches its midpoint.

Like-named read-outs stand apart in the source and are kept apart here.

The values below come from US9434711B2 (Janssen Pharmaceutica, NV, priority 2007, dated 2016).

The assay concerns the target canine TRPM8 (Canis lupus familiaris, UniProt Q1A7N1). Put plainly: In Vitro Canine TRPM8 Functional Assay (Ca2+ fluorescence, icilin activation). Particulars: for IC50: read-out: IC50; for inhibition at 0.5 µM: read-out: % Inh @ 0.5; for inhibition at 0.2 µM: read-out: % Inh @ 0.2. Type of assay: cell-based. The procedure, abridged:
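Eight-point dose-response curves in quadruplicate gave EC50 or IC50 values from a Ca2+-sensitive dye assay in HEK293 cells stably carrying canine TRPM8. Icilin, dosed near its 80% maximal level, followed a 5 min compound exposure.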

[1] abbreviates: HEK293 cells stably expressing canine TRPM8, icilin activation, eight-point dose-response.
Setting [2] is: compound at 0.5 μM, canine TRPM8, icilin activation.
Where [3] appears, read: compound at 0.2 μM, canine TRPM8, icilin activation.
The mark [4] stands for this setting: 0.2 μM compound, HEK293 cells stably expressing canine TRPM8, icilin activation.
Setting [5] is: HEK293 cells stably expressing canine TRPM8, icilin activation, average of two or more determinations.

Sequence of canine TRPM8 (Q1A7N1 1-1104): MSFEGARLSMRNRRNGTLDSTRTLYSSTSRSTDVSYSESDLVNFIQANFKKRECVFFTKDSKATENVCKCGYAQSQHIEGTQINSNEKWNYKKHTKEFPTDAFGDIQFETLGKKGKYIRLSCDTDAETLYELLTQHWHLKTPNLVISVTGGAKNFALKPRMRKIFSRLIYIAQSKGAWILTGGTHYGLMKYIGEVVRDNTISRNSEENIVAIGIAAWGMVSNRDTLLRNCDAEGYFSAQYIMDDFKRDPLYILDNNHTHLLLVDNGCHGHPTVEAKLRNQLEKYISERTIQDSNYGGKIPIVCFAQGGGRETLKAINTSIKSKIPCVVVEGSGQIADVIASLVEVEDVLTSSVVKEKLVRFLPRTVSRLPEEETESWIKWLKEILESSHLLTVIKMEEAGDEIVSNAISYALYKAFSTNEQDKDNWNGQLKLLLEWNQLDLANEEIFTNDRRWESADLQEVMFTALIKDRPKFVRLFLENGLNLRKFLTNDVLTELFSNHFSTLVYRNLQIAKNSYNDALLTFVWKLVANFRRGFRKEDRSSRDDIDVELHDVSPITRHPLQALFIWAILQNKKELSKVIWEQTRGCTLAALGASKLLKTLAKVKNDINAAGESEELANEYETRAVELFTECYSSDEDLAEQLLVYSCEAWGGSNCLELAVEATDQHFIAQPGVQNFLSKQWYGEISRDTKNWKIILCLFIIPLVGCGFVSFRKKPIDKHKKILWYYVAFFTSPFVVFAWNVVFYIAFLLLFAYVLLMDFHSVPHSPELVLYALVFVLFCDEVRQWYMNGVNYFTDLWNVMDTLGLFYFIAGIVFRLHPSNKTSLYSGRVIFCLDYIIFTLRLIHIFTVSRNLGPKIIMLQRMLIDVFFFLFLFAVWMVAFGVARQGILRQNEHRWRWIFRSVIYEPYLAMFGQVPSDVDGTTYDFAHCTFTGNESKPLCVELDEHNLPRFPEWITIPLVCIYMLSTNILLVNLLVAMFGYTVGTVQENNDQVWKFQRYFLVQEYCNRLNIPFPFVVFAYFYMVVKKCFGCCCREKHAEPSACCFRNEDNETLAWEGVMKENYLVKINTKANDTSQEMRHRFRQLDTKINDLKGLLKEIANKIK

On to `O=S(=O)(c1ccccc1)N(Cc1ccccn1)c1cc2ccccc2s1` [Compound 52, N-(Benzo[b]thiophen-2-yl)-N-(pyridin-2-ylmethyl)-benzenesulfonamide], for which, under setting [1], the IC50 stood at 116 nM. Under setting [2], the inhibition at 0.5 µM is 99%. As to `Cc1c(N(CCCCC(F)(F)F)S(=O)(=O)c2ccc(N(C)C)cc2)sc2ccccc12` [Compound 748, N-(3-Methyl-benzo[b]thiophen-2-yl)-N-(5,5,5-trifluoro-pentyl)-4-dimethylamino-benzenesulfonamide], under setting [1], the IC50 is 5.3 nM. Also, under setting [3], the inhibition at 0.2 µM stood at 101%. With `Cc1c(N(Cc2ccc(F)cc2)S(=O)(=O)c2ccc(OCc3ccc(F)cc3)c(F)c2)sc2ccccc12` [Compound 845, 3-Fluoro-N-(4-fluoro-benzyl)-4-(4-fluoro-benzyloxy)-N-(3-methyl-benzo[b]thiophen-2-yl)-benzenesulfonamide], the inhibition at 0.2 µM under setting [4] is 24%.

In the case of `CCCCN(c1cc2ccccc2s1)S(=O)(=O)c1cccnc1` [Compound 340, N-(Benzo[b]thiophen-2-yl)-N-(butyl)-pyridin-3-yl-sulfonamide], the inhibition at 0.2 µM under setting [3] worked out at 52%. Regarding `O=C(O)c1ccc(S(=O)(=O)N(CCCC(F)(F)F)c2cc3ccccc3s2)cc1` [Compound 451, N-(Benzo[b]thiophen-2-yl)-N-(4,4,4-trifluoro-butyl)-4-carboxy-benzenesulfonamide], under setting [1], the IC50 came out at 68 nM. In addition, the inhibition at 0.2 µM under setting [3] worked out at 97%. Regarding `Cc1c(N(Cc2ccc(OC(F)(F)F)cc2)S(=O)(=O)c2ccc(-n3ccnc3CN(C)C)cc2)sc2ccccc12` [Compound 701, 4-(2-Dimethylaminomethyl-imidazol-1-yl)-N-(3-methyl-benzo[b]thiophen-2-yl)-N-(4-trifluoromethoxy-benzyl)-benzenesulfonamide], the IC50 under setting [1] amounted to 32.5 nM. Under setting [3], the inhibition at 0.2 µM stood at 95%. Take `CC(=O)c1c(N(Cc2ccc(F)c(Cl)c2)S(=O)(=O)c2ccc(Br)cc2)sc2ccccc12` [Compound 733, N-(3-Acetyl-benzo[b]thiophen-2-yl)-4-bromo-N-(3-chloro-4-fluoro-benzyl)benzenesulfonamide]: under setting [1], the half-inhibitory concentration (IC50) stood at 13.4 nM. Also, the inhibition at 0.2 µM under setting [3] worked out at 100%.

Regarding `COC(=O)c1ccc(S(=O)(=O)N(Cc2ccc(F)c(C(F)(F)F)c2)c2sc3ccccc3c2C(C)C)cc1` [Compound 563, N-(4-Fluoro-3-trifluoromethyl-benzyl)-N-(3-isopropyl-benzo[b]thiophen-2-yl)-4-carbomethoxy-benzenesulfonamide], under setting [1], the IC50 was 49.3 nM. In addition, under setting [3], the inhibition at 0.2 µM was 94%.

As for `Cc1c(N(CCCCC(F)(F)F)S(=O)(=O)CC(F)(F)F)sc2ccccc12` [Compound 673, N-(3-Methyl-benzo[b]thiophen-2-yl)-N-(5,5,5-trifluoro-pentyl)-2,2,2-trifluoro-ethanesulfonamide], the inhibition at 0.2 µM under setting [3] stood at 94.4%. `CCCCN(c1sc2ccccc2c1C(=O)NC)S(=O)(=O)c1ccc(C(=O)OC)cc1` [Compound 466, N-(Butyl)-N-(3-methyl-carbamoyl-benzo[b]thiophen-2-yl)-4-carbomethoxy-benzenesulfonamide]: under setting [3], the “% Inh @ 0.2 (μM)” value is 66%. In the case of `O=S(=O)(c1ccccc1)N(CC1CCCCC1)c1sc2ccccc2c1Br` [Compound 232, N-(3-Bromo-benzo[b]thiophen-2-yl)-N-(cyclohexylmethyl)-benzenesulfonamide], under setting [1], the IC50 was determined as 74 nM. For the same compound, under setting [2], the inhibition at 0.5 µM was determined as 94%. Turning to `CCCCN(c1sc2ccccc2c1Br)S(=O)(=O)c1cccnc1` [Compound 345, N-(3-Bromobenzo[b]thiophen-2-yl)-N-(butyl)-pyridin-3-yl-sulfonamide], the IC50 under setting [1] was 26.5 nM. Moreover, under setting [3], the inhibition at 0.2 µM was determined as 99%.

Take `Cc1c(N(CCCC(F)(F)F)S(=O)(=O)c2cccc(C#N)c2)sc2ccccc12` [Compound 551, N-(3-Methyl-benzo[b]thiophen-2-yl)-N-(4,4,4-trifluoro-butyl)-3-cyano-benzenesulfonamide]: the IC50 under setting [1] came to 88.6 nM. For the same compound, the inhibition at 0.2 µM under setting [3] was found to be 94.4%. Turning to `O=S(=O)(c1ccccn1)N(Cc1ccc(F)c(F)c1)c1cc2ccccc2s1` [Compound 9, N-(Benzo[b]thiophen-2-yl)-N-(3,4-difluoro-benzyl)-pyridine-2-sulfonamide], under setting [1], the IC50 turned out to be 47 nM. For the same compound, under setting [2], the inhibition at 0.5 µM came out at 98%. For the compound `Cc1c(N(Cc2ccc(C(F)(F)F)c(F)c2)S(=O)(=O)c2cccs2)sc2ccccc12` [Compound 38, N-(3-Fluoro-4-trifluoromethyl-benzyl)-N-(3-methyl-benzo[b]thiophen-2-yl)-thiophene-2-sulfonamide], under setting [1], the IC50 was 3 nM. The inhibition at 0.5 µM under setting [2] was 97%. For `O=C1CC[C@H](CN(c2sc3ccccc3c2Br)S(=O)(=O)c2ccccc2)N1` [Compound 258, (R)—N-(3-Bromo-benzo[b]thiophen-2-yl)-N-(5-oxo-pyrrolidin-2-ylmethyl)-benzenesulfonamide], the inhibition at 0.2 µM under setting [3] is 25%. With `O=C1NCCN1CCN(c1sc2ccccc2c1Cl)S(=O)(=O)c1ccccc1` [Compound 91, N-(3-Chloro-benzo[b]thiophen-2-yl)-N-[2-(2-oxo-imidazolidin-1-yl)-ethyl]-benzenesulfonamide], under setting [2], the inhibition at 0.5 µM was determined as 33%. On to `CCCCS(=O)(=O)N(Cc1ccc(F)c(F)c1)c1sc2ccccc2c1Br` [Compound 154, N-(3-Bromo-benzo[b]thiophen-2-yl)-N-(3,4-difluoro-benzyl)-butane-1-sulfonamide], for which, under setting [1], the IC50 amounted to 36.2 nM. For the same compound, the inhibition at 0.5 µM under setting [2] stood at 96%. On to `Cc1c(N(Cc2ccc(OC(F)(F)F)cc2)S(=O)(=O)c2ccc(-c3noc(=O)[nH]3)cc2)sc2ccccc12` [Compound 801, N-(3-Methyl-benzo[b]thiophen-2-yl)-N-(4-trifluoromethoxy-benzyl)-4-(5-oxo-4,5-dihydro-[1,2,4]oxadiazol-3-yl)-benzenesulfonamide], for which, under setting [4], the inhibition at 0.2 µM turned out to be 102%. Besides, the IC50 under setting [5] came out at 2.8 nM.

`Cc1c(N(Cc2ccc(SC(F)(F)F)cc2)S(=O)(=O)c2ccc(C(=O)O)cc2)sc2ccccc12` [Compound 526, N-(3-Methyl-benzo[b]thiophen-2-yl)-N-(4-trifluoromethylsulfanyl-benzyl)-4-carboxy-benzenesulfonamide]: the IC50 under setting [1] was 1 nM. The inhibition at 0.2 µM under setting [3] came out at 102%. Turning to `Cc1c(N(CCC(F)(F)F)S(=O)(=O)c2ccc(C3=NOS(=O)N3)cc2)sc2ccccc12` (stereo not drawn) [Compound 598, N-(3-Methyl-benzo[b]thiophen-2-yl)-N-(3,3,3-trifluoro-propyl)-4-(3H-[1,2,3,5]oxathiadiazole-2-oxide)-benzenesulfonamide], the IC50 under setting [1] is 30.7 nM. In addition, the “% Inh @ 0.2 (μM)” value under setting [3] worked out at 101%. For the compound `Cc1c(N(Cc2ccc(F)c(C(F)(F)F)c2)S(=O)(=O)c2cccc(C(=O)O)c2)sc2ccccc12` [Compound 305, N-(3-Methyl-benzo[b]thiophen-2-yl)-N-(4-fluoro-3-trifluoromethyl-benzyl)-3-carboxy-benzenesulfonamide], the IC50 under setting [1] was 12 nM. For the same compound, the inhibition at 0.2 µM under setting [3] was determined as 97%. With `Cc1c(N(CCCF)S(=O)(=O)c2ccccc2)sc2ccccc12` [Compound 819, N-(3-Fluoro-propyl)-N-(3-methyl-benzo[b]thiophen-2-yl)-benzenesulfonamide], the inhibition at 0.2 µM under setting [4] was 98%. Further, the IC50 under setting [5] came out at 21 nM. In the case of `Cc1cccc(CN(c2cc3ccccc3s2)S(=O)(=O)c2ccccc2)c1` [Compound 63], the IC50 under setting [1] was 74 nM. Under setting [2], the “% Inh @ 0.5 (μM)” value was found to be 98%.

For `CCCCN(c1sc2ccccc2c1C(=O)N(C)C)S(=O)(=O)c1ccc(C(=O)OC)cc1` [Compound 467, N-(Butyl)-N-(3-dimethyl-carbamoyl-benzo[b]thiophen-2-yl)-4-carbomethoxy-benzenesulfonamide], the IC50 under setting [1] is 20 nM. Further, the “% Inh @ 0.2 (μM)” value under setting [3] was 100%. As for `Cc1c(N(CC2CC2)S(C)(=O)=O)sc2ccccc12` [Compound 365, N-(Cyclopropylmethyl)-N-(3-methyl-benzo[b]thiophen-2-yl)-methanesulfonamide], the inhibition at 0.2 µM under setting [3] was 38%. On to `CCN(c1sc2ccccc2c1Br)S(=O)(=O)c1ccccc1` [Compound 247, N-(3-Bromo-benzo[b]thiophen-2-yl)-N-(ethyl)-benzenesulfonamide], for which the IC50 under setting [1] came out at 25.5 nM. In addition, the inhibition at 0.2 µM under setting [3] was determined as 99%.

As to `Cc1c(N(Cc2ccc(F)c(C(F)(F)F)c2)S(=O)(=O)c2ccc(Cl)nc2)sc2ccccc12` [Compound 76, N-(4-Fluoro-3-trifluoromethyl-benzyl)-N-(3-methyl-benzo[b]thiophen-2-yl)-6-chloro-pyridine-3-sulfonamide], the IC50 under setting [1] turned out to be 21 nM. The inhibition at 0.2 µM under setting [3] turned out to be 95%. On to `CCS(=O)(=O)N(Cc1ccc(F)c(C(F)(F)F)c1)c1sc2ccccc2c1CN(C)C` [Compound 346, N-(3-Dimethylaminomethyl-benzo[b]thiophen-2-yl)-N-(4-fluoro-3-trifluoromethyl-benzyl)-ethanesulfonamide], for which the IC50 under setting [1] stood at 43.8 nM. Besides, the inhibition at 0.2 µM under setting [3] is 95%. For the compound `CCS(=O)(=O)N(Cc1ccc(F)c(F)c1)c1sc2ccccc2c1C(C)O` (stereo not drawn) [Compound 221, N-(3,4-Difluoro-benzyl)-N-[3-(1-hydroxy-ethyl)-benzo[b]thiophen-2-yl]-ethanesulfonamide], under setting [1], the half-inhibitory concentration (IC50) was determined as 5 nM. Also, under setting [3], the inhibition at 0.2 µM was 92%. As for `CS(=O)(=O)Nc1cccc(S(=O)(=O)N(CCC(F)(F)F)c2cc3ccccc3s2)c1` [Compound 713, N-(Benzo[b]thiophen-2-yl)-3-methanesulfonylamino-N-(3,3,3-trifluoro-propyl)-benzenesulfonamide], the inhibition at 0.2 µM under setting [3] is 47%.
